According to patent US9051325B2, “Bicyclic [5,6] imidazo pyrimodone compounds for use in the treatment of diseases or conditions mediated by Lp-PLA2” (GlaxoSmithKline Intellectual Property Development Limited, priority 2013, dated 2015):

Assays:
[1] = tested on: proinflammatory (M1) and anti-inflammatory (M2) markers in macrophages; assay: Ex vivo analysis of M1 and M2 markers in macrophages of EAE rats by realtime PCR; parameters: species or system rat; settings: splenic and CNS infiltrating macrophages of EAE rats
Method: Ex vivo analysis of proinflammatory (M1) and anti-inflammatory (M2) markers in control and compound treated EAE rats. Splenic macrophages were harvested at day 13 post MBP-immunization and assayed for expression of a variety of markers by realtime PCR. CNS infiltrating cells were harvested and macrophages were analyzed for expression of M1 and M2 markers by realtime PCR.

[2] = tested on: rat EAE model; assay: Rat experimental autoimmune encephalomyelitis (EAE) model, preventive treatment; type: in vivo
Method: A further study was carried out to study the impact of Lp-PLA2 inhibitors on modulating M1/M2 imbalance. In this study, rats were induced to develop experimental autoimmune encephalomyelitis (EAE) by immunization with myelin basic protein (MBP) antigen and treated with a known Lp-PLA2 inhibitor: 5-((9-Methoxy-4-oxo-6,7-dihydro-4H-pyrimido[6,1-a]isoquinolin-2-yl)oxy)-2-(3-(trifluoromethyl)phenoxy)benzonitrile (See PCT application no. PCT/CN2011/001597). In this preventive treatment model, the compound was administered at day 0 (day of immunization) and continued to administer until day 22. The study lasted for 25 days. Rats were subsequently monitored for symptoms of EAE. Rats were immunized with MBP to develop EAE and symptoms were monitored daily. Plasma Lp-PLA2 activity, OxLDL, and LysoPC concentration were determined at different time points through the course of EAE.

[3] = molecular target: T1, Lp-PLA2 in human plasma (Homo sapiens, UniProt Q13093); assay: Lp-PLA2 human plasma assay (Thio-PAF assay); type: biochemical; settings: pooled human plasma; lower bounds; read-out: pIC50 values in the thio-PAF assay (converted)
T1 construct: from tissue; host or cells: pooled human plasma
T1 sequence (Q13093 22-441): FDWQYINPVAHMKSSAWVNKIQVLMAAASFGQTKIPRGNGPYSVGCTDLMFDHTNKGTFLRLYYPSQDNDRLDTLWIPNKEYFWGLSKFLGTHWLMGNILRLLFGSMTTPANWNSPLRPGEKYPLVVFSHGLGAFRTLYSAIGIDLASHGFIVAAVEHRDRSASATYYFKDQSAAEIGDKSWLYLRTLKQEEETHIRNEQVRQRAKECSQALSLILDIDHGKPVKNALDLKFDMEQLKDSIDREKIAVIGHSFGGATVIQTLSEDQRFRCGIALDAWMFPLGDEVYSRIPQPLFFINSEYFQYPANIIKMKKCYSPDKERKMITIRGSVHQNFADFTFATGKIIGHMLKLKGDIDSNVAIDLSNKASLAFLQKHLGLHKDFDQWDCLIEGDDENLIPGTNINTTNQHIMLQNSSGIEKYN
Summary of the method: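 Pooled human plasma preincubated 30 min with compounds, then given 2-thio-PAF substrate with CPM and NEM in 50 mM HEPES pH 7.4, 150 mM NaCl, 1 mM CHAPS. Reaction quenched after 2 min with TFA and read by fluorescence (ex 380/em 485) after 40 min at room temperature; pIC50 from curve fit.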

[4] = molecular target: T2, recombinant human Lp-PLA2 (Homo sapiens, UniProt Q13093); assay: Recombinant human Lp-PLA2 assay (rhLp-PLA2, PED6 assay); type: biochemical; settings: lower bounds; read-out: pIC50 values in the PED6 assay (converted)
T2 sequence (Q13093 22-441): T1 sequence (Q13093 22-441)
Summary of the method: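 Compounds were preincubated 30 min with 4 nM […] rhLp-PLA2 in 50 mM HEPES pH 7.4, 150 mM NaCl, 1 mM CHAPS, then PED6 substrate […] was added for 20 min at room temperature in the dark. Fluorescence was read at ex 480/em 540, and pIC50 was fitted from 1:3 serial dilutions.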

SMILES	IC50 [3]	IC50 [4]	also measured
COc1ccc2c(c1)CCn1c-2cc(Oc2ccc(Oc3cccc(C(F)(F)F)c3)c(C#N)c2)nc1=O [5-((9-Methoxy-4-oxo-6,7-dihydro-4H-pyrimido[6,1-a]isoquinolin-2-yl)oxy)-2-(3-(trifluoromethyl)phenoxy)benzonitrile]	–	–	M1 markers [1]: decrease; M2 markers [1]: increase; Lp-PLA2 activity in rat EAE plasma ([2]; rat EAE plasma): decreased; LysoPC levels in rat EAE plasma ([2]; rat EAE plasma): decreased; clinical disease ([2]; rat EAE, MBP immunization, administered day 0 to day 22): reduction in clinical disease
CC1(C)Cn2c(cc(OCc3cc(F)c(Oc4ccnc(F)c4)c(F)c3)nc2=O)N1 [Example E116, 7-((3,5-difluoro-4-((2-fluoropyridin-4-yl)oxy)benzyl)oxy)-2,2-dimethyl-2,3-dihydroimidazo[1,2-c]pyrimidin-5(1H)-one]	≤ 0.1 µM	≤ 0.001 µM	–
CC1Cn2c(cc(OCc3ccc(Oc4cc(F)cc(C(F)(F)F)c4)c(F)c3)nc2=O)N1C (stereo not drawn) [Example E119, 7-((3-fluoro-4-(3-fluoro-5-(trifluoromethyl)phenoxy)benzyl)oxy)-1,2-dimethyl-2,3-dihydroimidazo[1,2-c]pyrimidin-5(1H)-one]	≤ 0.1 µM	≤ 0.001 µM	–
CC1Cn2c(cc(OCc3ccc(F)c(C#N)c3)nc2=O)N1C (stereo not drawn) [Example E121, 5-(((1,2-dimethyl-5-oxo-1,2,3,5-tetrahydroimidazo[1,2-c]pyrimidin-7-yl)oxy)methyl)-2-fluorobenzonitrile]	≤ 0.1 µM	≤ 0.01 µM	–
CN1c2cc(OCc3ccc(F)c(F)c3)nc(=O)n2CC1(C)C [Example E122, 7-((3,4-difluorobenzyl)oxy)-1,2,2-trimethyl-2-dihydroimidazo[1,2-c]pyrimidin-5(1H)-one]	≤ 0.1 µM	≤ 0.001 µM	–
C[C@@H]1Cn2c(cc(OCc3ccc(Oc4cncc(C(F)(F)F)c4)c(C#N)c3)nc2=O)N1C [Example E123, (R)-5-(((1,2-dimethyl-5-oxo-1,2,3,5-tetrahydroimidazo[1,2-c]pyrimidin-7-yl)oxy)methyl)-2-((5-(trifluoromethyl)pyridin-3-yl)oxy)benzonitrile]	≤ 0.1 µM	≤ 0.001 µM	–
CN1c2cc(OCc3cccc(C#N)c3)nc(=O)n2CC1(C)C [Example E124, 3-(((1,2,2-trimethyl-5-oxo-1,2,3,5-tetrahydroimidazo[1,2-c]pyrimidin-7-yl)oxy)methyl)benzonitrile]	≤ 0.1 µM	≤ 0.001 µM	–
CC1(C)Cn2c(cc(OCc3cc(F)c(Oc4ccnc(C(F)(F)F)c4)c(F)c3)nc2=O)N1 [Example E127, 7-((3,5-difluoro-4-((2-(trifluoromethyl)pyridin-4-yl)oxy)benzyl)oxy)-2,2-dimethyl-2,3-dihydroimidazo[1,2-c]pyrimidin-5(1H)-one]	≤ 0.1 µM	≤ 0.001 µM	–
CC1(C)Cn2c(cc(OCc3cc(F)c(Oc4cncc(Cl)c4)c(F)c3)nc2=O)N1 [Example E128, 7-((4-((5-chloropyridin-3-yl)oxy)-3,5-difluorobenzyl)oxy)-2,2-dimethyl-2,3-dihydroimidazo[1,2-c]pyrimidin-5(1H)-one]	≤ 0.1 µM	≤ 0.001 µM	–
CCN1c2cc(OCc3cc(F)cc(F)c3)nc(=O)n2CC1(C)C [Example E129, 7-((3,5-difluorobenzyl)oxy)-1-ethyl-2,2-dimethyl-2,3-dihydroimidazo[1,2-c]pyrimidin-5(1H)-one]	≤ 0.1 µM	≤ 0.01 µM	–
C[C@H]1Cn2c(cc(OCc3cc(F)c(Oc4ccnc(C(F)(F)F)c4)c(F)c3)nc2=O)N1 [Example E131, (S)-7-((3,5-difluoro-4-((2-(trifluoromethyl)pyridin-4-yl)oxy)benzyl)oxy)-2-methyl-2,3-dihydroimidazo[1,2-c]pyrimidin-5(1H)-one]	≤ 0.1 µM	≤ 0.001 µM	–
CC1(C)Cn2c(cc(OCc3cc(F)c(Oc4ccc(Cl)nc4)c(F)c3)nc2=O)N1 [Example E133, 7-((4-((6-chloropyridin-3-yl)oxy)-3,5-difluorobenzyl)oxy)-2,2-dimethyl-2,3-dihydroimidazo[1,2-c]pyrimidin-5(1H)-one]	≤ 0.1 µM	≤ 0.001 µM	–
CC1(C)Cn2c(cc(OCc3cc(F)c(Oc4ccc(F)nc4)c(F)c3)nc2=O)N1 [Example E134, 7-((3,5-difluoro-4-((6-fluoropyridin-3-yl)oxy)benzyl)oxy)-2,2-dimethyl-2,3-dihydroimidazo[1,2-c]pyrimidin-5(1H)-one]	≤ 0.1 µM	≤ 0.001 µM	–
[2H]C1([2H])n2c(cc(OCc3cccc(F)c3F)nc2=O)N(C)C1(C)C [Example E136, 7-((2,3-difluorobenzyl)oxy)-1,2,2-trimethyl-3,3-dideutero-2,3-dihydroimidazo[1,2-c]pyrimidin-5(1H)-one]	≤ 0.1 µM	≤ 0.01 µM	–
[2H]C1([2H])n2c(cc(OCc3cc(F)cc(F)c3)nc2=O)N(C)C1(C)C [Example E137, 7-((3,5-difluorobenzyl)oxy)-1,2,2-trimethyl-3,3-dideutero-2,3-dihydroimidazo[1,2-c]pyrimidin-5(1H)-one]	≤ 0.1 µM	≤ 0.01 µM	–
